The target in one assay is Beta-1,3-glucan synthase (Candida albicans, UniProt O13428). Put plainly: Tested for inhibition of Beta-1,3-glucan synthase using a crude membrane of Candida albicans (MY 1208).
A short description of assay [1]: In vivo anti-Candida activity was determined in a mouse model of disseminated candidiasis (TOKA). Type of assay: functional.
Another assay deals with Candida albicans. Put plainly: In vitro Fungicidal activity (MFC) against Candida albicans (MY 1055). Type of assay: functional.
The subject of a further assay is Candida parapsilosis. Briefly: In vitro Fungicidal activity (MFC) against Candida parapsilosis (MY 1010). The note with it: Lodderomyces parapsilosis. The format is functional.

Drawing on ChEMBL document CHEMBL1128045, “Antifungal lipopeptides: Structure-activity relationships of 3-hydroxyglutamine-modified pneumocandin B0 derivatives” (Bioorg Med Chem Lett, 1995), this text covers IC50, ED99.9 and MFC for nine compounds.

pIC50: −log10 of the molar value. Values after ≈ are worked out from the molar mass of the structure shown. Numbered stars: 1 amine (or outer) side, 2 acyl side, 3 side chain; on linkers, the order of the positions; unused ones are H or OH. Bridge positions count the residues as written; N and C are the ends. Square brackets hold non-standard residues; d marks the D form. Peptide text beside a SMILES is read from it. * marks the point of attachment. Orn(4R-OH,5R-OH) = O=C([C@H](C[C@@H](O)[C@@H](O)N[*:3])N[*:1])[*:2]; hTyr(3S-OH,4S-OH) = N[C@H](C(=O)O)[C@H](O)[C@@H](O)c1ccc(O)cc1; X16 = COC(=O)CCCCCNC(=O)C[C@@H](O)[C@H](N[*:1])C(=O)[*:2]; Orn(4R-OH) = O=C([C@H](C[C@@H](O)CN[*:3])N[*:1])[*:2]; X15 = NCCCCCCNC(=O)C[C@@H](O)[C@H](N[*:1])C(=O)[*:2]; X6 = C[N+](C)(C)CC[C@@H](O)[C@H](N[*:1])C(=O)[*:2]; hTyr(3R-OH) = N[C@H](C(=O)O)[C@H](O)Cc1ccc(O)cc1; X12 = CC(=O)NCC[C@@H](O)[C@H](N[*:1])C(=O)[*:2]; X5 = NC(N)=NCC[C@@H](O)[C@H](N[*:1])C(=O)[*:2]; X4 = N=C(S)C[C@@H](O)[C@H](N[*:1])C(=O)[*:2]; Gln(3R-OH) = NC(=O)C[C@@H](O)[C@H](N)C(=O)O; X9 = N#CC[C@@H](O)[C@H](N[*:1])C(=O)[*:2]; Orn(3R-OH) = NCC[C@@H](O)[C@H](N)C(=O)O; Pro(3S-OH) = O=C(O)[C@H]1NCC[C@@H]1O; Hyp = O=C(O)[C@@H]1C[C@@H](O)CN1; X1 = CCC(C)CC(C)CCCCCCCCC(=O)* A value given as a limit tells only on which side of the number the result lay.

Chain of Beta-1,3-glucan synthase (O13428 whole entry): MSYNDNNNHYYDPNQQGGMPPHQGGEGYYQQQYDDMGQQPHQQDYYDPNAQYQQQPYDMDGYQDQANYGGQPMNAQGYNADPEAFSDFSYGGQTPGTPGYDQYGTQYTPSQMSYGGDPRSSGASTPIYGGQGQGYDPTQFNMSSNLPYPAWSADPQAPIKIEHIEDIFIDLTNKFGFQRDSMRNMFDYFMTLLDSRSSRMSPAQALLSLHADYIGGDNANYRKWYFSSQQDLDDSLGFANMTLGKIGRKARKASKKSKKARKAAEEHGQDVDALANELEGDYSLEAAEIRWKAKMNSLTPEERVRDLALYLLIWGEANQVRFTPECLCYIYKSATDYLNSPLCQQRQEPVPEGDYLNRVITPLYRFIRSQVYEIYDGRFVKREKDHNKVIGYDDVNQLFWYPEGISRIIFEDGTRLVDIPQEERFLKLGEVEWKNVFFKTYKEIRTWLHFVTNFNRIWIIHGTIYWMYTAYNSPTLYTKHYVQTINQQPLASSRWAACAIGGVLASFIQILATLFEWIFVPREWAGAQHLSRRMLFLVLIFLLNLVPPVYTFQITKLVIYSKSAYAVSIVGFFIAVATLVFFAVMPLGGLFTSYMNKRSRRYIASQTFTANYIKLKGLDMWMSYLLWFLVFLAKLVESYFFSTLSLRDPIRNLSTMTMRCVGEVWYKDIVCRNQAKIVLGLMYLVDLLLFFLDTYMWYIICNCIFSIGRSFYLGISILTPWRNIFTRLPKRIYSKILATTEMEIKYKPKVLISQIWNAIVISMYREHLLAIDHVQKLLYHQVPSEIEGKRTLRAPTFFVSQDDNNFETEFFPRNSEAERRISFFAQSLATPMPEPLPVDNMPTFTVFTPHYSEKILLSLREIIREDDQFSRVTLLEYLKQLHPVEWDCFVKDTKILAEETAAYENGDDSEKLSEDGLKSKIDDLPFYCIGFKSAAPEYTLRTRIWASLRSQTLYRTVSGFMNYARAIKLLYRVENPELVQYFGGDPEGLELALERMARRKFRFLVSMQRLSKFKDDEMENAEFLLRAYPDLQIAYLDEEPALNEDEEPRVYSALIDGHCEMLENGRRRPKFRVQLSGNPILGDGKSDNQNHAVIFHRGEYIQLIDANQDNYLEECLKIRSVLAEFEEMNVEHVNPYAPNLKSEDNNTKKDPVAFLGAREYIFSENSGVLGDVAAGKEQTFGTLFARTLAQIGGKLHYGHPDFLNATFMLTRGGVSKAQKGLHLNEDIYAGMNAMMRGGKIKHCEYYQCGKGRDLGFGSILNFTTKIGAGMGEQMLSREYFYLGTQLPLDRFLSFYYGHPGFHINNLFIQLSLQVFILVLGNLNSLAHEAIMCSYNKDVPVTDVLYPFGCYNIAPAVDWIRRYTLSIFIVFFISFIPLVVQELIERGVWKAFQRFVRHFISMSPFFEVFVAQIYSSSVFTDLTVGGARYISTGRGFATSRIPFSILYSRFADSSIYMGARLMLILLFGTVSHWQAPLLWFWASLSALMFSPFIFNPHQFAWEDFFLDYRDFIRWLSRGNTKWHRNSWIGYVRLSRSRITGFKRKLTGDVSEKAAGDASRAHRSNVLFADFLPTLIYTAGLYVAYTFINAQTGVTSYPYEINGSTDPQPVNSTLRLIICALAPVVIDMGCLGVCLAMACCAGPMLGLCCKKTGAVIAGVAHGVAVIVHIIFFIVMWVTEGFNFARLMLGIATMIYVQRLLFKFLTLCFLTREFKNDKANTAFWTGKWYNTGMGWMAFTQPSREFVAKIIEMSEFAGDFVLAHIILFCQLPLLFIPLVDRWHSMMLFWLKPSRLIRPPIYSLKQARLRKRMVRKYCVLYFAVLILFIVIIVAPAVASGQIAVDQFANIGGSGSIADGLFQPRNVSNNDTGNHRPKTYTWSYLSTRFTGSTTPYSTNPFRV

Usually pIC50 stands for the negative decadic logarithm of the IC50, by convention in mol/L. The low end stands for a large IC50, the high end for a small IC50. The MFC is the smallest concentration meeting the test's criterion for killing the fungus. Low readings indicate more potent killing, high ones less potent killing. In the case of `CCC(C)CC(C)CCCCCCCCC(=O)N[C@H]1C[C@@H](O)CNC(=O)[C@@H]2[C@@H](O)CCN2C(=O)[C@H]([C@H](O)CCN)NC(=O)[C@H]([C@H](O)Cc2ccc(O)cc2)NC(=O)[C@@H]2C[C@@H](O)CN2C(=O)[C@H]([C@@H](C)O)NC1=O` (stereo partly drawn) (X1-[Orn(4R-OH)]T[Hyp][hTyr(3R-OH)][Orn(3R-OH)][Pro(3S-OH)]; lactam 1-C), at Beta-1,3-glucan synthase, the pIC50 is 8.00. Further, the ED99.9 in assay [1] was found to be 1.5 mg/kg. In the assay with Candida albicans, the MFC was 0.125 µg/mL (≈ 0.123 µM).
At Beta-1,3-glucan synthase, `CCC(C)CC(C)CCCCCCCCC(=O)N[C@H]1C[C@@H](O)CNC(=O)[C@@H]2[C@@H](O)CCN2C(=O)[C@H]([C@H](O)CC(=N)S)NC(=O)[C@H]([C@H](O)Cc2ccc(O)cc2)NC(=O)[C@@H]2C[C@@H](O)CN2C(=O)[C@H]([C@@H](C)O)NC1=O` (stereo partly drawn) (X1-[Orn(4R-OH)]T[Hyp][hTyr(3R-OH)][X4][Pro(3S-OH)]; lactam 1-C) gave a pIC50 of 6.92. The MFC in the assay with Candida parapsilosis was 4 µg/mL (≈ 3.81 µM); against Candida albicans, 0.25 µg/mL (≈ 0.238 µM). For the same compound, the ED99.9 in assay [1] is more than 6 mg/kg.
On to `CCC(C)CC(C)CCCCCCCCC(=O)N[C@H]1C[C@@H](O)CNC(=O)[C@@H]2[C@@H](O)CCN2C(=O)[C@H]([C@H](O)CC(N)=O)NC(=O)[C@H]([C@H](O)Cc2ccc(O)cc2)NC(=O)[C@@H]2C[C@@H](O)CN2C(=O)[C@H]([C@@H](C)O)NC1=O` (stereo partly drawn) (X1-[Orn(4R-OH)]T[Hyp][hTyr(3R-OH)][Gln(3R-OH)][Pro(3S-OH)]; lactam 1-C), for which the pIC50 at Beta-1,3-glucan synthase is 7.15. Further, the MFC in the assay on Candida parapsilosis amounted to 2 µg/mL (≈ 1.94 µM); in the assay with Candida albicans, 0.25 µg/mL (≈ 0.242 µM). This compound returned an ED99.9 in assay [1] of more than 6 mg/kg.
In turn, `CCC(C)CC(C)CCCCCCCCC(=O)N[C@H]1C[C@@H](O)[C@@H](O)NC(=O)[C@@H]2[C@@H](O)CCN2C(=O)[C@H]([C@H](O)CC[N+](C)(C)C)NC(=O)[C@H]([C@H](O)[C@@H](O)c2ccc(O)cc2)NC(=O)[C@@H]2C[C@@H](O)CN2C(=O)[C@H]([C@@H](C)O)NC1=O` (stereo partly drawn) (X1-[Orn(4R-OH,5R-OH)]T[Hyp][hTyr(3S-OH,4S-OH)][X6][Pro(3S-OH)]; lactam 1-C) had a pIC50 against Beta-1,3-glucan synthase of 8.05. Also, the MFC in the assay on Candida parapsilosis turned out to be 0.5 µg/mL; against Candida albicans, 0.125 µg/mL. The ED99.9 in assay [1] worked out at 0.375 mg/kg.
The like results for `CCC(C)CC(C)CCCCCCCCC(=O)N[C@H]1C[C@@H](O)[C@@H](O)NC(=O)[C@@H]2[C@@H](O)CCN2C(=O)[C@H]([C@H](O)CCN=C(N)N)NC(=O)[C@H]([C@H](O)[C@@H](O)c2ccc(O)cc2)NC(=O)[C@@H]2C[C@@H](O)CN2C(=O)[C@H]([C@@H](C)O)NC1=O` (stereo partly drawn) (X1-[Orn(4R-OH,5R-OH)]T[Hyp][hTyr(3S-OH,4S-OH)][X5][Pro(3S-OH)]; lactam 1-C) were, in that order, 8.15, 0.5 µg/mL (≈ 0.457 µM), less than 0.06 µg/mL and 1.5 mg/kg.
Take `CCC(C)CC(C)CCCCCCCCC(=O)N[C@H]1C[C@@H](O)CNC(=O)[C@@H]2[C@@H](O)CCN2C(=O)[C@H]([C@H](O)CC(=O)NCCCCCC(=O)OC)NC(=O)[C@H]([C@H](O)Cc2ccc(O)cc2)NC(=O)[C@@H]2C[C@@H](O)CN2C(=O)[C@H]([C@@H](C)O)NC1=O` (stereo partly drawn) (X1-[Orn(4R-OH)]T[Hyp][hTyr(3R-OH)][X16][Pro(3S-OH)]; lactam 1-C): on Beta-1,3-glucan synthase, the pIC50 was 6.60. Besides, the values for the MFC against Candida parapsilosis and against Candida albicans were more than 128 µg/mL and 4 µg/mL (≈ 3.44 µM), respectively.
Consider `CCC(C)CC(C)CCCCCCCCC(=O)N[C@H]1C[C@@H](O)[C@@H](O)NC(=O)[C@@H]2[C@@H](O)CCN2C(=O)[C@H]([C@H](O)CCNC(C)=O)NC(=O)[C@H]([C@H](O)[C@@H](O)c2ccc(O)cc2)NC(=O)[C@@H]2C[C@@H](O)CN2C(=O)[C@H]([C@@H](C)O)NC1=O` (stereo partly drawn) (X1-[Orn(4R-OH,5R-OH)]T[Hyp][hTyr(3S-OH,4S-OH)][X12][Pro(3S-OH)]; lactam 1-C), for which the pIC50 at Beta-1,3-glucan synthase is 6.52. For the same compound, the results for the MFC in the assay on Candida parapsilosis and in the assay with Candida albicans were 8 µg/mL (≈ 7.32 µM) and 4 µg/mL (≈ 3.66 µM), respectively. The compound also came in with an ED99.9 in assay [1] of 12 mg/kg.
As to `CCC(C)CC(C)CCCCCCCCC(=O)N[C@H]1C[C@@H](O)CNC(=O)[C@@H]2[C@@H](O)CCN2C(=O)[C@H]([C@H](O)CC(=O)NCCCCCCN)NC(=O)[C@H]([C@H](O)Cc2ccc(O)cc2)NC(=O)[C@@H]2C[C@@H](O)CN2C(=O)[C@H]([C@@H](C)O)NC1=O` (stereo partly drawn) (X1-[Orn(4R-OH)]T[Hyp][hTyr(3R-OH)][X15][Pro(3S-OH)]; lactam 1-C), the pIC50 against Beta-1,3-glucan synthase was 7.42. The compound also yielded an ED99.9 in assay [1] of more than 6 mg/kg. The MFC against Candida albicans is 0.5 µg/mL (≈ 0.442 µM).
`CCC(C)CC(C)CCCCCCCCC(=O)N[C@H]1C[C@@H](O)CNC(=O)[C@@H]2[C@@H](O)CCN2C(=O)[C@H]([C@H](O)CC#N)NC(=O)[C@H]([C@H](O)Cc2ccc(O)cc2)NC(=O)[C@@H]2C[C@@H](O)CN2C(=O)[C@H]([C@@H](C)O)NC1=O` (stereo partly drawn) (X1-[Orn(4R-OH)]T[Hyp][hTyr(3R-OH)][X9][Pro(3S-OH)]; lactam 1-C) had a pIC50 on Beta-1,3-glucan synthase of 7.00. For the same compound, the MFC against Candida parapsilosis amounted to 4 µg/mL (≈ 3.94 µM); in the assay on Candida albicans it was 1 µg/mL (≈ 0.985 µM).
